Data from US20230029496A1, “AMINO ACID ALTERNATIVE CURING SYSTEM” (THE TEXAS A&M UNIVERSITY SYSTEM, priority 2019, published 2023).
“And” between values parts separate entries of the source, which are not always exact repeats. Identical values can stand only once. Marks after values point to notes of the source that are not given here.

Assays:
[1] = tested on: Nitric Oxide Synthase (NOS) system; assay: NO-heme, total heme, nitrosylation in plastic casing test tube ground pork loin sausages (Example 10); settings: for Nitrosylation / NO-Heme / Total Heme: cooked; for NO-Heme / Total Heme: ppm acid hematin
Experimental: The desired cured color could not initially be generated in a variety of processed meat products in a pilot plant setting. […] Pork loins (N=2) procured from a local meat distributor (Mar. 18, 2019) were used. Eight pounds of pork loins were ground (½″ then ¼″ plate) and weighed out in one pound portions. Plastic waterproof casings (2″ diameter) were clipped at one end. One pound of ground pork loin was placed in the casing and two pounds of brine (L-arginine concentration 7498 ppm) were added and the open end of the casing clipped. Based on laboratory test tube studies, meat samples would absorb 20-25% of the solution which equates to absorption of approximately 1500 ppm of L-arginine. Each plastic casing contained the same proportion of meat and brine as conducted during previous laboratory experiments (Table 12). A control was manufactured by substituting distilled water for the L-arginine brine.
After thermal processing the plastic casing test tubes were cut open and emptied into beakers, then separated into residue (meat particles) and supernatant (liquid) via paper filtration into 50 mL conical tubes for collection and subsequent analysis for residual nitrite (supernatant) and cured pigment formation/nitrosylation (meat residue).
Nitrosylation and residual nitrite analyses was performed under reduced light to avoid loss of pigmentation. L-arginine treated test tube pork sausage averaged 53.12 to 72.30 ppm of residual nitrite in the cooked meat pellet with percent nitrosylation ranging from 33 to 60 percent (Table 13). The brine was formulated to deliver 1500 ppm ingoing L-arginine at 25% absorption into the meat after two hours of immersion in the brine solution.

[2] = tested on: Nitric Oxide Synthase (NOS) system; assay: Cure efficiency (NO-heme, total heme, nitrosylation) of cooked pre- and post-rigor pork semimembranosus muscle (Example 13); format: biochemical
Experimental: Cooked meat samples were analyzed for the degree of nitrosylation through residual nitrite from the Pearson and Tauber method from the modified Hornsey's procedure for analyzing small samples [103] from the supernatant and pellet. 2 mL or 2 g of the samples were treated with acetone to measure NO-heme concentration and for total heme concentration, 2 mL or 2 g of the samples were treated with acetone and hydrochloric acid. Both samples were measured using a spectrophotometer (2100 Series Spectrophotometer, Unico, Dayton, N.J.) and a 1 cm quartz cuvette. NO-heme concentration (ppm acid hematin) was read at 540 nm, and total heme concentration (ppm acid hematin) was determined at 640 nm to determine nitrosylation as the indication of the effectiveness of L-arginine in curing the samples. This procedure measured the conversion levels of myoglobin to nitrosohemochromagen, the cured meat color, and the amount of conversion as compared to the total pigmentation within the sample.
Curing efficiency or nitrosylation is calculated as the percentage conversion of NO-heme to total heme. Cure efficiency is the percentage of total pigment converted to nitroso pigment and indicates the degree of cured color fading. Cured meat pigment is extracted in a solution of 80% acetone and 20% water that extracts cured pigment heme. Total heme pigments are extracted using an acidified acetone solution that extracts heme from all heme proteins as first used by Hornsey. NO-heme concentration (as ppm acid hematin)=sample A540×290 determines the specific cure color pink from the rest of the heme pigmentation of the sample. Total heme concentration (ppm acid hematin)=sample A640×680 determines the total heme pigmentation of the sample. Cure efficiency (%)=(ppm of nitrosoheme […]ppm of total pigment)×100 and indicates how much of the product is cured and holds the cured pink stability once cooked.

NOS system = assay: Residual nitrite in test tube pork loin sausages (Example 11)
From the text: Pork loins from a local meat distributor were procured on Mar. 18, 2019 and tested four weeks later on Apr. 18, 2019. A total of nine pounds of pork loins were split into thirds and ground through kidney, ½″, and ¼″ plates to make a restructured ham sausages formulated (Table 14) to contain either 1000 or 5000 ppm L-arginine which were stuffed in 2″ plastic casings and thermally processed. Three pounds of each grind size (9 pound batch) were mixed with high (5000 ppm), low (1000 ppm), or control (0 ppm) concentrations of brine at 25% addition using a Kitchen aid mixer. It was decided to lower the concentration of the L-arginine from 1500 ppm (Test 3) to 1000 ppm (Test 4) to verify that this concentration can generate acceptable levels of NO to develop cured color and residual nitrite for antioxidant and antimicrobial properties. Control and treatment met batches were stuffed in plastic casings in triplicate for each high, low, and control concentrations in one pound portions. […] The samples were tested for residual nitrite and nitroso-hemochromagen pigment (Table 14) one day after thermal processing cooking (April 19th to April 20th), then eight days after thermal processing on April 26th to determine any cure color fading and residual nitrite.

[3] = 2 mM L-arginine, cooked post rigor pellet
[4] = 2 mM L-arginine, cooked post rigor supernatant
[5] = 2 mM L-arginine, cooked pre-rigor pellet
[6] = 2 mM L-arginine, cooked pre-rigor supernatant
[7] = 4 mM L-arginine, cooked post rigor pellet
[8] = 4 mM L-arginine, cooked post rigor supernatant
[9] = 4 mM L-arginine, cooked pre-rigor pellet
[10] = 4 mM L-arginine, cooked pre-rigor supernatant
[11] = 8 mM L-arginine, cooked post rigor pellet
[12] = 8 mM L-arginine, cooked post rigor supernatant
[13] = 8 mM L-arginine, cooked pre-rigor pellet
[14] = 8 mM L-arginine, cooked pre-rigor supernatant
[15] = 16 mM L-arginine, cooked post rigor pellet
[16] = 16 mM L-arginine, cooked post rigor supernatant
[17] = 16 mM L-arginine, cooked pre-rigor pellet
[18] = 16 mM L-arginine, cooked pre-rigor supernatant
[19] = 32 mM L-arginine, cooked post rigor pellet
[20] = 32 mM L-arginine, cooked post rigor supernatant
[21] = 32 mM L-arginine, cooked pre-rigor pellet
[22] = 32 mM L-arginine, cooked pre-rigor supernatant

SMILES: N=C(N)NCCC[C@H](N)C(=O)O [L-arginine]
- Nitrosylation ([1]; 10% L-arginine brine): 33.71^ab %
- NO-Heme ([1]; 10% L-arginine brine): 7.63^bc ppm
- Total Heme ([1]; 10% L-arginine brine): 22.66^a ppm
- Nitrosylation ([1]; 15% L-arginine brine): 45.19^a %
- NO-Heme ([1]; 15% L-arginine brine): 8.70^b ppm
- Total Heme ([1]; 15% L-arginine brine): 19.26^a ppm
- Nitrosylation ([1]; 20% L-arginine brine): 36.99^ab %
- NO-Heme ([1]; 20% L-arginine brine): 8.31^b ppm
- Total Heme ([1]; 20% L-arginine brine): 22.66^a ppm
- Nitrosylation ([1]; 25% L-arginine brine): 60.13^a %
- NO-Heme ([1]; 25% L-arginine brine): 16.24^a ppm
- Total Heme ([1]; 25% L-arginine brine): 28.56^a ppm
- percent nitrosylation ([1]; range over brine additions 10-25%): 33 to 60%
- NO-Heme [2, 3]: 16.10^b ppm
- Nitrosylation [2, 3]: 31.22^a %
- Total Heme [2, 3]: 62.56^a ppm
- NO-Heme [2, 4]: 23.76^a ppm
- Nitrosylation [2, 4]: 61.38^a %
- Total Heme [2, 4]: 64.43^a ppm
- NO-Heme [2, 5]: 19.02^a ppm
- Nitrosylation [2, 5]: 52.09^a %
- Total Heme [2, 5]: 61.48 ppm and 61.48^ab ppm
- NO-Heme [2, 6]: 26.02 ppm and 26.02^ab ppm
- Nitrosylation [2, 6]: 60.23^a %
- Total Heme [2, 6]: 50.43^a ppm
- NO-Heme [2, 7]: 19.72 ppm and 19.72^ab ppm
- Nitrosylation [2, 7]: 35.19^a %
- Total Heme [2, 7]: 67.72^a ppm
- NO-Heme [2, 8]: 22.81^a ppm
- Nitrosylation [2, 8]: 55.90^a %
- Total Heme [2, 8]: 73.33^a ppm
- NO-Heme [2, 9]: 18.82^a ppm
- Nitrosylation [2, 9]: 49.31^a %
- Total Heme [2, 9]: 52.07 ppm and 52.07^ab ppm
- NO-Heme [2, 10]: 28.17 ppm and 28.17^ab ppm
- Nitrosylation [2, 10]: 70.03^a %
- Total Heme [2, 10]: 40.86^a ppm
- NO-Heme [2, 11]: 18.34 ppm and 18.34^ab ppm
- Nitrosylation [2, 11]: 35.53^a %
- Total Heme [2, 11]: 63.58^a ppm
- NO-Heme [2, 12]: 25.98^a ppm
- Nitrosylation [2, 12]: 79.27^a %
- Total Heme [2, 12]: 62.90^a ppm
- NO-Heme [2, 13]: 16.38^a ppm
- Nitrosylation [2, 13]: 31.43^a %
- Total Heme [2, 13]: 80.07 ppm and 80.07^ab ppm
- NO-Heme [2, 14]: 32.98^a ppm
- Nitrosylation [2, 14]: 75.71^a %
- Total Heme [2, 14]: 45.11^a ppm
- NO-Heme [2, 15]: 18.42 ppm and 18.42^ab ppm
- Nitrosylation [2, 15]: 62.80^a %
- Total Heme [2, 15]: 51.68^a ppm
- NO-Heme [2, 16]: 20.54^a ppm
- Nitrosylation [2, 16]: 52.33^a %
- Total Heme [2, 16]: 54.46^a ppm
- NO-Heme [2, 17]: 26.56^a ppm
- Nitrosylation [2, 17]: 55.29^a %
- Total Heme [2, 17]: 123.31 ppm and 123.31^a ppm
- NO-Heme [2, 18]: 22.45 ppm and 22.45^ab ppm
- Nitrosylation [2, 18]: 55.02^a %
- Total Heme [2, 18]: 42.05^a ppm
- NO-Heme [2, 19]: 27.33 ppm and 27.33^a ppm
- Nitrosylation [2, 19]: 34.51^a %
- Total Heme [2, 19]: 85.11^a ppm
- NO-Heme [2, 20]: 25.50^a ppm
- Nitrosylation [2, 20]: 104.27^a %
- Total Heme [2, 20]: 59.73^a ppm
- NO-Heme [2, 21]: 33.37^a ppm
- Nitrosylation [2, 21]: 86.11^a %
- Total Heme [2, 21]: 53.72 ppm and 53.72^ab ppm
- NO-Heme [2, 22]: 27.67^ab ppm
- Nitrosylation [2, 22]: 66.20^a %
- Total Heme [2, 22]: 44.94^a ppm
- Nitrite (NOS system; High (5000 ppm) L-arginine, 8 days post thermal processing, refrigerated vacuum packaged): 48.12^a ppm
- Nitrite (NOS system; High (5000 ppm) L-arginine, one day after thermal processing): 66.73^a ppm
- Nitrite (NOS system; Low (1000 ppm) L-arginine, 8 days post thermal processing, refrigerated vacuum packaged): 37.78^a ppm
- Nitrite (NOS system; Low (1000 ppm) L-arginine, one day after thermal processing): 79.16^a ppm
- residual nitrite decrease (NOS system; during 8 days of refrigerated vacuum packaged storage): 20-30 ppm
